In article PMC8554203, “Inhibition of Bromodomain and Extra Terminal (BET) Domain Activity Modulates the IL-23R/IL-17 Axis and Suppresses Acute Graft-Versus-Host Disease” (Frontiers in Oncology, 2021):
Where two headings read alike, the source gives them in different places.

Experiments:
BRD4 = molecular target: T1, BRD4 (Homo sapiens, UniProt O60885); assay: substrate binding (displacement) assay with engineered tandem bromodomain protein; conditions: read-out: PLX2853 / IC50 (μM) ^a
T1 construct: BRD4-BD12 (engineered protein containing both bromodomains)

BRD2 = molecular target: T2, BRD2 (Homo sapiens, UniProt P25440); assay: as above
T2 construct: BRD2-BD12 (engineered protein containing both bromodomains)
T2 sequence (P25440 74-453 limits assumed): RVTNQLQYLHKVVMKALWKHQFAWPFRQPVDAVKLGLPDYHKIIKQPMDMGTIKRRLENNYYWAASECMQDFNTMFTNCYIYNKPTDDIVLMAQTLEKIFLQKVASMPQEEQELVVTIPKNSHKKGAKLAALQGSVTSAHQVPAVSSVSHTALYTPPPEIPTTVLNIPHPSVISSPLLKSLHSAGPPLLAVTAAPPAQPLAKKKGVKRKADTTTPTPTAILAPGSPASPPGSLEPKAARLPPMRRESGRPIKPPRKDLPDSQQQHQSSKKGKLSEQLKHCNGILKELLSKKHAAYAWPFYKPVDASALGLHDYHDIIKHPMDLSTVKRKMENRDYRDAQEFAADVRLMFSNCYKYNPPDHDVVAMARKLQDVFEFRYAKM

Row | SMILES | IC50 (BRD4) | IC50 (BRD2; read-out: PLX2853 / IC50 (μM) ^a) | IC50 (BRD2)
1 | Cc1noc(C)c1-c1cnc2c(-c3ccc(C(=O)O)cc3)cn(C(C)(c3ccccn3)c3ccccn3)c2c1 [PLX2853] | 0.0043 µM | 0.0073 µM | 
2 | Cc1noc(C)c1-c1cnc2c(-c3ccc(C(=O)O)cc3)cn([C@@H](C)c3ccccn3)c2c1 [PLX51107] |  |  | 0.052 µM
